Literature values as cited in patent publication US20240398903A1, “COMPOSITION AND METHODS OF TREATMENT USING […] - ENHANCED SUPPLEMENTATION” (Xygenyx Inc., priority 2023, published 2024).

Legend:
[1] = as compared to α-tocopherol (factor 1.0)
[2] = in vivo
[3] = system: skin; details: topical, concentrations 0.5-5%
[4] = even when dietary intake occurs in equal portions
[5] = system: wide dynamic range neurons in the ventroposterolateral nucleus of the thalamus; details: in vivo
[6] = system: skin; details: penetration enhancer for transdermal drugs
[7] = in vivo; remark: listed apart in the source
[8] = mice

## Cc1cc(O)c(C)c2c1O[C@](C)(CCC[C@H](C)CCC[C@H](C)CCCC(C)C)CC2 [β-tocopherol]
[1]
  relative biological activity: 0.5

## CCNC(=O)CC[C@H](N)C(=O)O [Theanine]
[2]
  dose considered safe and well-tolerated: up to 400 mg per day

## C=CCCCCCCCCC(=O)N[C@@H](Cc1ccccc1)C(=O)O [UP, Undecylenoyl phenylalanine]
[3]
  time of treatment to skin lightening effects: ≥ 7 days

## Cc1c(C)c2c(c(C)c1O)CC[C@@](C)(CCC[C@H](C)CCC[C@H](C)CCCC(C)C)O2 [α-tocopherol]
Dietary supplementation, doses up to 400 IU/day
  reducing the risk of coronary disease: up to 34%
Dietary supplementation, doses up to 400 IU/day, controlled trials
  reduce the risk of developing neurodegenerative diseases such as Alzheimer's Syndrome or dementia: ≤ 24%
In combination with 10-20 mg β-carotene and 400-500 mg vitamin C
  reduction in the development of age-related cataracts: 23%
[1]
  relative biological activity: 1.0

## Cc1c(O)cc2c(c1C)O[C@](C)(CCC[C@H](C)CCC[C@H](C)CCCC(C)C)CC2 [γ-tocopherol]
[1]
  relative biological activity: 0.1
[4]
  concentration in vivo relative to α-tocopherol: roughly 10%

## CCCCCc1cc(O)c2c(c1)OC(C)(C)C1CCC(C)=CC21 (stereo not drawn) [THC, Δ-9-tetrahydrocannabinol]
[5]
  power in mediating pain relative to morphine: ten times more powerful than morphine

## CC12CCC(CC1)C(C)(C)O2 [eucalyptol, 1,8-epoxy-p-menthane]
[6]
  increase of drug uptake via the transdermal route (factor): more than 10

## Cc1cc(O)cc2c1O[C@](C)(CCC[C@H](C)CCC[C@H](C)CCCC(C)C)CC2 [δ-tocopherol]
[1]
  relative biological activity: 0.03

## HGH: hormone comprising a peptide chain that is synthesized in the pituitary gland
[7]
  biological half-life: 10-20 minutes

## CC(CN)C(=O)O [L-BAIBA, L-beta-aminoisobutyric acid]
[8]
  tolerated dose: 10-100 mg/kg of bodyweight

## CC(C)[C@@H]1CC[C@@H](C)C[C@H]1O [Menthol]
[6]
  increase of drug uptake via the transdermal route (factor): ≥ 10
